Values of other authors in patent US20080139615A1, “COMBINATION OF A HYPNOTIC AGENT AND R (+)-ALPHA-(2,3-DIMETHOXY-PHENYL)-1-[2-(4-FLUOROPHENYL)ETHYL]-4-PIPERIDINEMETHANOL AND THERAPEUTIC APPLICATION THEREOF” (priority 2005, published 2008).

Experiments:
[1] = average dosage between 5 and 10 mg, conventional formulation
[2] = system: slow wave sleep (SWS), arousals; conditions: patients with sleep maintenance insomnia

Compound | acting time [1] | half life (average value) [1] | SWS (slow wave sleep) [2]
Cc1ccc(-c2nc3ccc(C)cn3c2CC(=O)N(C)C)cc1 [Zolpidem, zolpidem] | up to 6 hours | about 2.4 hours | –
COc1cccc([C@H](O)C2CCN(CCc3ccc(F)cc3)CC2)c1OC [Compound A, R-(+)-α-(2,3-dimethoxyphenyl)-1-[2-(4-fluorophenyl)ethyl]-4-piperidinemethanol] | – | – | increase
